Assay results taken from patent US10179777B2, “3-(1H-benzimidazol-2-yl)-1H-pyridin-2-one derivatives” (MERCK PATENT GMBH, priority 2015, dated 2019).

Columns and labels:
[1] = molecular target: T1, ALK5 (TGFβR1; GST-modified TGFBR1 (200-503)) (Homo sapiens, UniProt P36897); assay: ALK5 kinase inhibition assay (33P-ATP filter binding, Reaction Biology); format: biochemical; settings: casein substrate, 200 μM ATP
T1 construct: Using GST-Modified TGFBR1 (200-503); GST
T1 sequence (P36897 200-503): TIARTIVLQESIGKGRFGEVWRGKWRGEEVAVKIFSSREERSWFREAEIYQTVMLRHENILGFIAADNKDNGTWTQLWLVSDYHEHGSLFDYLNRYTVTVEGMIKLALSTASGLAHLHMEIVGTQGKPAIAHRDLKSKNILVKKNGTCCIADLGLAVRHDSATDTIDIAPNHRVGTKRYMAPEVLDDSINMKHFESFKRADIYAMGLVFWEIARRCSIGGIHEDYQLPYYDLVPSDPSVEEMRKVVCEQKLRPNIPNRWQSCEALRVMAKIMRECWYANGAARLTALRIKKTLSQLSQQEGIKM
Description: The protein sequences of the kinases targeted and accompanying information are described in publically available data base http://www.uniprot.org/uniprot/for ALK1 www.uniprot.org/uniprot/P37023, for ALK2 www.uniprot.org/uniprot/Q04771 and for ALK5 www.uniprot.org/uniprot/P36897. IC50 determination of the novel inhibitors described was performed at Reaction Biology Corp., Malvern, Pa., USA, with assay conditions open to public at www.reactionbiology.com/webapps/site/KinaseDetail.aspx?page=Kinases&id=1, and www.reactionbiology.com/webapps/site/Kinase Assay Protocol.aspx. In addition, they were specified previously in Anastassiadis et al. Nat. Biotechnol. 29(11): 1039-1045. doi:10.1038/nbt.2017.
A3) ALK5 Kinase Inhibition Assay Was Performed Similar to Procedures A1 and A2 Using GST-Modified TGFBR1 (200-503) and 1 mg/ml Casein as Substrate at 200 μM ATP.

[2] = tested on: ALK1-mediated SMAD1/5 phosphorylation in HUVEC cells; assay: Cell-based immunofluorescence assay for ALK1-mediated SMAD1/5 phosphorylation in HUVEC cells; settings: Homo sapiens, 1.5 ng/ml BMP-9 with compound for 2 h, % nuclei with pSMAD1/5 signal, read-out: Smad 1/5 IC50
Procedure, shortened: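 Serum-starved primary HUVEC (≤5 passages) were treated with compound (1 nM-30 μM, 10 doses, 0.5% DMSO) plus 1.5 ng/ml BMP-9 for 2 h at 37° C. Cells were then fixed and immunostained for phospho-Smad1/5 (Ser463/465), and % positive nuclei were counted by confocal imaging. Data were normalised to DMSO (0%) and 10 μM reference inhibitor (−100%).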

[3] = molecular target: T2, ALK1 (GST-modified kinase domain ACVRL1 (139-503)) (Homo sapiens, UniProt P37023); assay: ALK1 kinase inhibition assay (33P-ATP filter binding, Reaction Biology); format: biochemical; settings: casein substrate, 100 μM ATP (Km ATP), 120 min ambient temperature
T2 construct: N-terminally GST-modified kinase domain ACVRL1 (139-503); GST (N)
T2 sequence (P37023 139-503): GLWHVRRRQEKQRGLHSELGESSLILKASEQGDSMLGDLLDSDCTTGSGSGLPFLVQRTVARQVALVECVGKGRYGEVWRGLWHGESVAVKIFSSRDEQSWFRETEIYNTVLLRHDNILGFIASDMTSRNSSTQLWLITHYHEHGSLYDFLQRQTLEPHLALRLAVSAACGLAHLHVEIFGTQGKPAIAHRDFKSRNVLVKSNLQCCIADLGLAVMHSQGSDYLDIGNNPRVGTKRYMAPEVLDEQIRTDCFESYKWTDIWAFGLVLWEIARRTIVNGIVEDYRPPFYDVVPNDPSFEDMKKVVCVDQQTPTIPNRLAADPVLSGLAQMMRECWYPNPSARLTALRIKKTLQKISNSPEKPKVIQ
Procedure, shortened: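 GST-tagged kinase domain with 20 mg/ml casein substrate in 20 mM HEPES pH 7.5, 10 mM MgCl2, 1 mM EGTA, 2 mM DTT, 1% DMSO; 120 min at ambient temperature. Phosphorylation read by P81 filter binding; background-subtracted activity as percent of DMSO vehicle, curve-fit for IC50.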

[4] = molecular target: T3, ALK2 (GST-modified kinase domain ACVR1(145-509)) (Homo sapiens, UniProt Q04771); assay: ALK2 kinase inhibition assay (33P-ATP filter binding, Reaction Biology); format: biochemical; settings: casein substrate, 20 μM ATP (Km ATP), 120 min ambient temperature
T3 construct: N-terminally GST-modified kinase domain ACVR1(145-509); GST (N)
T3 sequence (Q04771 145-509): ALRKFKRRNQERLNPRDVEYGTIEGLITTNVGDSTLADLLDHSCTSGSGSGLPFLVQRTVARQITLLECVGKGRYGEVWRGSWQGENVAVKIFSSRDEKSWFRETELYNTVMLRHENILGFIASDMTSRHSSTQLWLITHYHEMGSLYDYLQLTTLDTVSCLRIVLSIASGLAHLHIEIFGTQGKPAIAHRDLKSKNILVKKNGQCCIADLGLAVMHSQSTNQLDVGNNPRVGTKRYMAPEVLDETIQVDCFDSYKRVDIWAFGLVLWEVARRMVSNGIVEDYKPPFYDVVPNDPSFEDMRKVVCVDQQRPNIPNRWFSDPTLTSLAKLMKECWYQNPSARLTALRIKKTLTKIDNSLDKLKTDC
Procedure, shortened: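 Human ACVR1(145-509) kinase domain, N-terminal GST-tagged, with 1 mg/ml casein substrate and 33P-ATP in 20 mM HEPES pH 7.5, 10 mM MgCl2, 1 mM EGTA, 2 mM DTT, 1% DMSO. Incubated 120 min at ambient temperature, then spotted on P81 filters and washed. Background-subtracted activity taken as % of DMSO control; IC50 from curve fit.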

Compound | IC50 [1] [nM] | IC50 [2] [nM] | IC50 [3] [nM] | IC50 [4] [nM]
Cc1[nH]c2ncccc2c1-c1c[nH]c(=O)c(-c2nc3cc(N4CCN(C)CC4)ccc3[nH]2)c1 [Compound A52, 3-[5-(4-Methyl-piperazin-1-yl)-1H-benzimidazol-2-yl]-5-(2-methyl-1H-pyrrolo-[2,3-b]pyridin-3-yl)-1H-pyridin-2-one] | 480 | 2600 | 29 | 17
CN1CCC(Oc2ccc3[nH]c(-c4cc(-c5ccnc6ccccc56)c[nH]c4=O)nc3c2)CC1 [Compound A59, 3-[6-(1-Methyl-piperidin-4-yloxy)-1H-benzimidazol-2-yl]-5-quinolin-4-yl-1H-pyridin-2-one] | 2500 | 12000 | 170 | 80
